Measurements published in US4980349A, “Sulphonamides derived from diarylmethanes, the processes for preparing them and pharmaceutical compositions containing them” (SANOFI, priority 1986, dated 1990).
Entries after “also recorded” stand apart in the source; their conditions may differ. Read-outs that look alike come from different tables or passages of the source.

How the values were obtained:
[1] = system: thromboxane synthetase; assay: TXB2 production in human glomeruli (renal preparation model); assay type: cell-based; settings: arachidonic acid 5 ug/ml
Method: Human glomeruli synthesize both thromboxanes, via thromboxane synthetase, and prostaglandins, via prostacyclin synthetase. The experiment consists in stimulating glomerular cells with arachidonic acid (5 ug/ml) and in assaying radioimmunologically the amount of thromboxane B2 (TXB2) and prostacyclin (PGI2) produced in the presence of increasing concentrations of test products (10^-6 M to 5×10^-5 M).
As for the previous model, the results are expressed as IC50 in comparison with a control suspension.

[2] = system: thromboxane synthetase; assay: TXB2 production in human platelet suspension (thromboxane synthetase); assay type: cell-based; settings: human platelets, arachidonic acid 5 μg/ml, 37° C., read-out: IC50, inhibition of the production of TXB2
Method: The platelets are incubated with arachidonic acid (5 μg/ml) in the presence of increasing doses of test products (10^-6l M to 5×10^-5 M). Platelets stimulated by arachidonic acid (AA) manufacture a large amount of thromboxane A2 (TXA2), which can be measured radioimmunologically in the form of a stable metabolite TXB2.
The assay of the amount of TXB2 in the medium is performed after a 1- to 15- minute incubation at 37° C., the measurements being made in comparison with a control suspension which has not been incubated with the test products.
Results: These are expressed as IC50, that is to say as the concentration of the test product which permits 50% inhibition of the production of TXB2.

[3] = system: biosynthesis of leukotrienes B4 (LTB4), human polymorphonuclear leukocytes; assay: Biosynthesis of LTB4, isomers and oxidized metabolites in human polymorphonuclear leukocytes; assay type: cell-based; settings: Leukocyte
Outline: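 Human polymorphonuclear leukocytes (5×10^6, used within 6 h of blood draw) preincubated 10 min at 37° C. with test product at 40 μM in DMSO, stimulated with 10 μM ionophore A 23187 in PBS pH 7.4. LTB4, its isomers and oxidized metabolites quantified by HPLC at 269 nm against PGB2 internal standard, as % inhibition or % increase.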

[4] = system: pain threshold of brewer's yeast inflamed rat hind foot; assay: Randall and Sellitto's test (analgesic activity); assay type: in vivo; settings: for change in vivo at 25 mg/kg: 25 mg/kg oral; for change in vivo at 25 mg/kg / change in vivo at 50 mg/kg / change in vivo at 100 mg/kg: read-out: percentage increase in the mean pain threshold; for change in vivo at 50 mg/kg: 50 mg/kg oral; for change in vivo at 100 mg/kg: 100 mg/kg oral; for ED50: po, analgesia, read-out: 50% active dose
Outline: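 Rats had 0.1 ml 20% brewer's yeast suspension injected under the hind-foot plantar aponeurosis; compounds dosed orally by stomach tube 1 h before yeast. Pain threshold was the pressure eliciting foot withdrawal, read at the 4–6 h plateau; result is % increase in mean threshold versus untreated controls, 10 rats per group.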

[5] = system: foreign-body (sponge) granuloma in rats; assay: Experimental granuloma induced by foreign body, histological study; assay type: in vivo, Wistar rats; settings: for histological study of the granuloma: 8 days, Table XI; for histological study of the granuloma (inflammatory connective / granulation tissue): second experiment, day 8, Table XIa
[6] = system: foreign-body (sponge) granuloma in rats; assay: Experimental granuloma induced by foreign body, weight of the granulomas; assay type: in vivo, Wistar rats; settings: Rattus norvegicus, po, 240 h, 10 days after implantation, Table XIb, read-out: decrease in the weight of the granulomas
Method: This test consists in studying the subacute cellular phase which is developed in the 8 days which follow the implantation of a foreign body, a sponge of non-resorbable plastic, in the dorsal subcutaneous connective tissue in rats.
The animals used are Wistar rats weighing 120-140 g and of the same origin, maintained under the same conditions of housing throughout the treatment (8 days).
The compounds of the invention are administered orally, in a gum suspension, in the morning in a fasted state, using an oesophageal tube.
In this experiment, on the one hand a histological study of the granulomas is performed by sampling on day 8 (results recorded in Table XIa), and on the other hand a study of the weight of the granulomas was performed 10 days after the implantation (results recorded in Table XIb).

[7] = system: biosynthesis of leukotrienes C4 (LTC4), human polymorphonuclear leukocytes; assay: LTC4 production in human polymorphonuclear leukocytes; assay type: cell-based; settings: Leukocyte, 0.25 h, ionophore A 23187 5 μM, 15 min, 37° C., read-out: IC50, inhibition of the production of LTC4
Method: Human polymorphonuclear Leukocytes are stimulated by calcium ionophore A 23187 (Calbiochem, 5 μM), in the presence or absence of the test products.
After 15 minutes' incubation at 37° C., assay of the leukotrienes C4 (LTC4) is performed radioimmunologically.
The results are expressed as IC50, the concentration producing 50% inhibition of the production of LTC4, by comparison with a control suspension which has not been incubated in the presence of the test products.

[8] = first experiment, read-out: Isomers of LTB4: percentage inhibition (+ : percentage increase in the production)
[9] = first experiment, read-out: LTB4: percentage inhibition (+ : percentage increase in the production)
[10] = first experiment, read-out: Oxidized metabolites of LTB4: percentage inhibition (+ : percentage increase in the production)
[11] = second experiment, read-out: Percentage inhibition of LTB4 formation

`O=C(O)CCCCCCCCCCNS(=O)(=O)c1ccc(Cl)cc1C(=O)c1ccccc1` [Compound 1572, 11-(2-benzoyl-4-chlorobenzenesulphonamido)undecanoic acid] showed an IC50 [1] of 7 µM, an IC50 [2] of 12 µM and an inhibition at 40 µM [3, 8] of 100%. The inhibition at 40 µM [3, 9] was 84%, the inhibition at 40 µM [3, 10] was 90% and the change in vivo at 25 mg/kg ([4]; first experiment, Table XII) was 18%. For the same compound, the change in vivo at 50 mg/kg ([4]; first experiment, Table XII) was 30%, the change in vivo at 100 mg/kg ([4]; first experiment, Table XII) was 55% and the “histological study of the granuloma” value ([5]; 50 mg/kg oral) was “anti-inflammatory activity is exhibited”. The “histological study of the granuloma” value ([5]; 100 mg/kg oral) was “distinct”.
`O=C(O)CCCCCCCCCCNS(=O)(=O)c1ccc(Cl)cc1C(=O)c1ccccc1Cl` [Compound 1574, 11-[2-(2-chlorobenzoyl)-4-chlorobenzenesulphonamido]undecanoic acid] showed a change in vivo at 25 mg/kg [6] of -48%, a change in vivo at 50 mg/kg [6] of -50% and a change in vivo at 100 mg/kg [6] of -55%. For the same compound, the IC50 [1] was 5 µM, the IC50 [2] was 8 µM and the inhibition at 40 µM [3, 8] was 100%. The inhibition at 40 µM [3, 9] was 95%, the inhibition at 40 µM [3, 10] was 100% and the inhibition at 40 µM [3, 11] was 95%. For the same compound, the IC50 [7] was 3000 nM, the change in vivo at 25 mg/kg ([4]; second experiment, Table XIIa) was 45% and the change in vivo at 50 mg/kg ([4]; second experiment, Table XIIa) was 50%. For the same compound, the change in vivo at 100 mg/kg ([4]; second experiment, Table XIIa) was 50%, the ED50 ([4]; second experiment, Table XIIa) was 50 mg/kg and the “histological study of the granuloma (inflammatory connective / granulation tissue)” value [5] was “very distinct rarefaction”.
Compound `O=C(O)CCCCCCCCCCCNS(=O)(=O)c1ccc(Cl)c(C(=O)c2ccccc2)c1` [Compound 1736, 12-(3-benzoyl-4-chlorobenzenesulphonamido)dodecanoic acid] has a change in vivo at 25 mg/kg [6] of -48%, a change in vivo at 50 mg/kg [6] of -52% and a change in vivo at 100 mg/kg [6] of -55%. For the same compound, the IC50 [1] was 2.6 µM, the IC50 [2] was 6.2 µM and the inhibition at 40 µM [3, 11] was 100%. For the same compound, the IC50 [7] was 3000 nM, the change in vivo at 25 mg/kg ([4]; second experiment, Table XIIa) was 52% and the change in vivo at 50 mg/kg ([4]; second experiment, Table XIIa) was 58%. The change in vivo at 100 mg/kg ([4]; second experiment, Table XIIa) was 60%, the ED50 ([4]; second experiment, Table XIIa) was 25 mg/kg and the “histological study of the granuloma (inflammatory connective / granulation tissue)” value [5] was “Very distinct slowing in the formation”.
For `O=C(O)CCCCCCCCCCNS(=O)(=O)c1ccc(Cl)cc1C(O)c1ccccc1Cl` (stereo not drawn) [Compound 1796], the change in vivo at 25 mg/kg [6] was -50%, the change in vivo at 50 mg/kg [6] was -55% and the change in vivo at 100 mg/kg [6] was -60%. It also gave an IC50 [1] of 3.2 µM, an IC50 [2] of 7.8 µM and an inhibition at 40 µM [3, 11] of 100%. The IC50 [7] was 1700 nM, the change in vivo at 25 mg/kg ([4]; second experiment, Table XIIa) was 50% and the change in vivo at 50 mg/kg ([4]; second experiment, Table XIIa) was 55%. The change in vivo at 100 mg/kg ([4]; second experiment, Table XIIa) was 58%, the ED50 ([4]; second experiment, Table XIIa) was 25 mg/kg and the “histological study of the granuloma (inflammatory connective / granulation tissue)” value [5] was “only slightly inflammatory”.
Work on `O=C(O)CCCCCCCCCCNS(=O)(=O)c1ccc(Cl)cc1Cc1ccccc1Cl` [Compound 1797] yielded a change in vivo at 25 mg/kg [6] of -50%, a change in vivo at 50 mg/kg [6] of -55% and a change in vivo at 100 mg/kg [6] of -60%. The IC50 [1] was 4.4 µM, the IC50 [2] was 5 µM and the inhibition at 40 µM [3, 11] was 100%. The IC50 [7] was 1000 nM, the change in vivo at 25 mg/kg ([4]; second experiment, Table XIIa) was 50% and the change in vivo at 50 mg/kg ([4]; second experiment, Table XIIa) was 55%. For the same compound, the change in vivo at 100 mg/kg ([4]; second experiment, Table XIIa) was 58% and the “histological study of the granuloma (inflammatory connective / granulation tissue)” value [5] was “Granuloma poorly developed; also recorded: slightly inflammatory”.
